According to PubChem BioAssay (NCI):
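A five-concentration, 48-hour dose response in 96-well plates underlies each endpoint, interpolated linearly between surrounding concentrations. At the TGI there is no net growth.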

Key:
Test in all cases: growth of human tumour cells (NCI), 48 h
[1] = test system: SF-295 CNS
[2] = test system: MOLT-4 leukemia
[3] = test system: SNB-19 CNS
[4] = test system: HCC-2998 colon
[5] = test system: T-47D breast
[6] = test system: HS 578T breast
[7] = test system: OVCAR-5 ovarian
[8] = test system: HCT-116 colon
[9] = test system: SF-539 CNS
[10] = test system: BT-549 breast
[11] = test system: SR leukemia
[12] = test system: IGROV1 ovarian
[13] = test system: SK-MEL-28 melanoma
[14] = test system: PC-3 prostate
[15] = test system: RXF 393 renal
[16] = test system: SK-OV-3 ovarian
[17] = test system: DU-145 prostate
[18] = test system: CAKI-1 renal
[19] = test system: M14 melanoma
[20] = test system: MCF7 breast
[21] = test system: LOX IMVI melanoma
[22] = test system: UO-31 renal
[23] = test system: EKVX NSCLC
[24] = test system: SNB-75 CNS
[25] = test system: OVCAR-3 ovarian
[26] = test system: SK-MEL-2 melanoma
[27] = test system: UACC-257 melanoma
[28] = test system: COLO 205 colon
[29] = test system: 786-0 renal
[30] = test system: MDA-N
[31] = test system: RPMI-8226 leukemia
[32] = test system: UACC-62 melanoma
[33] = test system: K-562 leukemia
[34] = test system: HOP-92 NSCLC
[35] = test system: NCI/ADR-RES ovarian
[36] = test system: NCI-H226 lung
[37] = test system: SF-268 CNS
[38] = test system: MALME-3M melanoma
[39] = test system: TK-10 renal
[40] = test system: MDA-MB-435
[41] = test system: ACHN renal
[42] = test system: SN12C renal
[43] = test system: A549 NSCLC
[44] = test system: CCRF-CEM leukemia
[45] = test system: OVCAR-8 ovarian
[46] = test system: MDA-MB-231 breast
[47] = test system: SK-MEL-5 melanoma
[48] = test system: HL-60(TB) leukemia
[49] = test system: SW-620 colon
[50] = test system: HOP-62 NSCLC
[51] = test system: OVCAR-4 ovarian
[52] = test system: NCI-H522 lung
[53] = test system: HT29 colon
[54] = test system: NCI-H460 lung
[55] = test system: U251 CNS
[56] = test system: KM12 colon
[57] = test system: HCT-15 colon
[58] = test system: NCI-H23 lung

**Q.** What does the source list for Cn1c2ccccc2c(=NNc2ccc(S(N)(=O)=O)cc2)c2ccccc21?
**A.** TGI [1]: > 50 µM; TGI [2]: 26.9 µM; TGI [3]: > 50 µM; TGI [4]: 38.7 µM; TGI [5]: 34.8 µM; TGI [6]: > 50 µM; TGI [7]: > 50 µM; TGI [8]: > 50 µM; TGI [9]: > 50 µM; TGI [10]: > 50 µM; TGI [11]: 25.6 µM; TGI [12]: > 50 µM; TGI [13]: > 50 µM; TGI [14]: > 50 µM; TGI [15]: 43.7 µM; TGI [16]: > 50 µM; TGI [17]: > 50 µM; TGI [18]: > 50 µM; TGI [19]: > 50 µM; TGI [20]: 43.1 µM; TGI [21]: 38.1 µM; TGI [22]: 41.1 µM; TGI [23]: > 50 µM; TGI [24]: 46.6 µM; TGI [25]: > 50 µM; TGI [26]: 34.3 µM; TGI [27]: 49.8 µM; TGI [28]: > 50 µM; TGI [29]: > 50 µM; TGI [30]: > 50 µM; TGI [31]: > 50 µM; TGI [32]: > 50 µM; TGI [33]: 40.4 µM; TGI [34]: 35.8 µM; TGI [35]: > 50 µM; TGI [36]: 48.4 µM; TGI [37]: > 50 µM; TGI [38]: 43.2 µM; TGI [39]: > 50 µM; TGI [40]: > 50 µM; TGI [41]: 29 µM; TGI [42]: > 50 µM; TGI [43]: > 50 µM; TGI [44]: > 50 µM; TGI [45]: > 50 µM; TGI [46]: > 50 µM; TGI [47]: 22.5 µM; TGI [48]: 32 µM; TGI [49]: > 50 µM; TGI [50]: > 50 µM; TGI [51]: > 50 µM; TGI [52]: > 50 µM; TGI [53]: > 50 µM; TGI [54]: 34.3 µM; TGI [55]: > 50 µM; TGI [56]: > 50 µM; TGI [57]: > 50 µM; TGI [58]: > 50 µM

**Q.** What does the source list for CC(C)OP(=O)(CCCCCCCCC/C=C/c1ccc2c(c1)OCCOCCOCCOCCO2)OC(C)C?
**A.** TGI [1]: 10.3 µM; TGI [2]: 10.7 µM; TGI [3]: 15.2 µM; TGI [4]: 14.2 µM; TGI [5]: 9.11 µM; TGI [6]: 9.02 µM; TGI [7]: 11.4 µM; TGI [8]: 11.2 µM; TGI [9]: 12.4 µM; TGI [10]: 9.09 µM; TGI [11]: 15.4 µM; TGI [12]: 16.2 µM; TGI [13]: 20.1 µM; TGI [14]: 9.51 µM; TGI [15]: 9.12 µM; TGI [16]: 9.19 µM; TGI [17]: 15.2 µM; TGI [18]: 11.7 µM; TGI [19]: 13.5 µM; TGI [20]: 11.2 µM; TGI [21]: 4.93 µM; TGI [22]: 9.02 µM; TGI [23]: 11.8 µM; TGI [24]: 10.4 µM; TGI [25]: 10 µM; TGI [26]: 8.69 µM; TGI [27]: 10.2 µM; TGI [28]: 3.89 µM; TGI [29]: 14.1 µM; TGI [30]: 13.5 µM; TGI [31]: > 100 µM; TGI [32]: 14.8 µM; TGI [33]: 24.1 µM; TGI [34]: 5.8 µM; TGI [35]: 10.5 µM; TGI [36]: 9.24 µM; TGI [37]: 16.8 µM; TGI [38]: 13.7 µM; TGI [39]: 21.4 µM; TGI [40]: 13.6 µM; TGI [41]: 11.8 µM; TGI [42]: 14.2 µM; TGI [43]: 13.6 µM; TGI [44]: 7.5 µM; TGI [45]: 12.1 µM; TGI [46]: 12.6 µM; TGI [47]: 7.76 µM; TGI [48]: 30.7 µM; TGI [49]: 14.7 µM; TGI [50]: 6.15 µM; TGI [51]: 16.2 µM; TGI [52]: 10.1 µM; TGI [53]: 11 µM; TGI [54]: 7.37 µM; TGI [55]: 7.74 µM; TGI [56]: 11 µM; TGI [57]: 10.3 µM; TGI [58]: 8.21 µM
